From article PMC10940605, “Design, synthesis and in vitro anticancer activity of some new lomefloxacin derivatives” (Scientific Reports, 2024)

How the values were obtained:
SK-OV-3 = assay: NCI-60 SRB screen; assay type: cell-based; details: Homo sapiens; SK-OV-3, 10^–5 Molar; read-out: Percent growth inhibition
[1] = system: 60 human cancer cell lines; assay: NCI-60 SRB screen, whole panel; assay type: cell-based; details: Homo sapiens; for activity at 10 µM: 48 h, One Dose Mean Graph, Conc 1.00E-5 Molar, read-out: Mean Growth Percent
SF-295 = assay: NCI-60 SRB screen; assay type: cell-based; details: Homo sapiens; SF-295, 10^–5 Molar; read-out: Percent growth inhibition
Protocol: (§1) All newly synthesized compounds were selected and screened for anticancer activity against 60 human cancer cell lines representing 9 types of tumors including leukemia, melanoma, lung, colon, CNS, ovarian, renal, prostate, and breast cancers at the National Cancer Institute (NCI), Bethesda, USA. Screening was performed utilizing a single dose (10^−5 M concentration) and cells were incubated for 48 h. The end point was determined using sulforhodamine B (SRB) dye.
(§2) In this study, all the 16 newly synthesized compounds were submitted to the National Cancer Institute (USA) for anticancer evaluation and were selected and evaluated using 60 different human tumor cell lines representing lung, colon, CNS, ovarian, renal, prostate, breast cancers as well as leukemia and melanoma. A single dose (10^–5 Molar) was used for the initial screening for evaluation of anticancer activity. The 60 human cancer cell lines were provided by the national cancer institute biomedical research campus in Frederick, Maryland.
(§3) 60 different human cancer cell lines were utilized to screen the newly synthesized compounds for anticancer activity according to the previously reported standard procedure[24]–[26] as follows: • 96 well microtiter plates were used to inoculate the cells at […] ranging from 4000–5000 cells/well depending on the replication time of individual cell lines. Roswell Park Memorial Institute culture medium (RPMI 1640 medium) containing 2 mM L-glutamine and fetal bovine serum was used to grow the cells at 37 °C, 5% CO2, 95% air and 100% relative humidity for 24 h. • Fixation of cells in two plates of each cell line in situ was done using trichloroacetic acid (TCA). This represented the measurement of cell population at the time of drug addition (Tz). • Dimethyl sulfoxide (DMSO) was used to dissolve the synthesized compounds at 400-fold the desired final maximum concentration and frozen prior to use. This frozen concentrate was melted and diluted to twice the final concentration with complete medium containing 50 µg/mL gentamycin at time of drug addition. • The final compound concentration was obtained by adding 100 µL of the synthesized compounds to the appropriate microtiter wells already containing 100 µL followed by incubation of the plates at 37 °C, 5% CO2, 95% air and 100% relative humidity for 48 h. • Fixation of the cells was achieved by gentle addition of 50 µL of cold 50% (w/v) TCA followed by incubation for 60 min at 4 °C. The supernatant was then discarded and the plates are washed 5 times with tap water and air dried. • Sulphorhodamine B (SRB) solution (100 µL) at 0.4% (w/v) in 1% acetic acid was added to each plate followed by incubation for 10 min at room temperature. The unbound dye was then removed by washing five times with 1% acetic acid and plates were air dried. • Dissolution of the bound stain was done using […] trizma base and the absorbance was read at […] wavelength using an automated plate reader. • The percentage growth inhibition was calculated as follows: Ti-Tz/C-Tz×100forconcentrationswhichTi≥Tz Ti-Tz/Tz×100forconcentrationswhichTi<Tz • Time zero (Tz) • Control growth (C) • Test growth in the presence of drug (Ti)

UACC-62 = assay: NCI-60 SRB screen; assay type: cell-based; details: Homo sapiens; UACC-62, 10^–5 Molar; read-out: Percent growth inhibition
Protocol: as §1, §2, §3

MDA-MB-468 = assay: NCI-60 SRB screen; assay type: cell-based; details: Homo sapiens; MDA-MB-468, 10^–5 Molar; read-out: Percent growth inhibition
Protocol: as §1, §2, §3

HCT-116 = assay: NCI-60 SRB screen; assay type: cell-based; details: Homo sapiens; HCT-116, 10^–5 Molar; read-out: Percent growth inhibition
Protocol: as §1, §2, §3

HCC-2998 = assay: NCI-60 SRB screen; assay type: cell-based; details: Homo sapiens; HCC-2998, 10^–5 Molar; read-out: Percent growth inhibition
Protocol: as §1, §2, §3

NCI-H522 = assay: NCI-60 SRB screen; assay type: cell-based; details: Homo sapiens; NCI-H522, 10^–5 Molar; read-out: Percent growth inhibition
Protocol: as §1, §2, §3

A498 = assay: NCI-60 SRB screen; assay type: cell-based; details: Homo sapiens; A498, 10^–5 Molar; read-out: Percent growth inhibition
Protocol: as §1, §2, §3

OVCAR-5 = assay: NCI-60 SRB screen; assay type: cell-based; details: Homo sapiens; OVCAR-5, 10^–5 Molar; read-out: Percent growth inhibition
Protocol: as §1, §2, §3

MDA-MB-231/ATCC = assay: NCI-60 SRB screen; assay type: cell-based; details: Homo sapiens, 10^–5 Molar, read-out: Percent growth inhibition
Protocol: as §1, §2, §3

HOP-92 = assay: NCI-60 SRB screen; assay type: cell-based; details: Homo sapiens; HOP-92, 10^–5 Molar; read-out: Percent growth inhibition
Protocol: as §1, §2, §3

NCI-H460 = assay: NCI-60 SRB screen; assay type: cell-based; details: Homo sapiens; NCI-H460, 10^–5 Molar; read-out: Percent growth inhibition
Protocol: as §1, §2, §3

RXF 393 = assay: NCI-60 SRB screen; assay type: cell-based; details: Homo sapiens, 48 h; RXF 393, 10^–5 Molar; read-out: Percent growth inhibition
Protocol: as §1, §2, §3

HOP-62 = assay: NCI-60 SRB screen; assay type: cell-based; details: Homo sapiens; HOP-62, 10^–5 Molar; read-out: Percent growth inhibition
Protocol: as §1, §2, §3

U251 = assay: NCI-60 SRB screen; assay type: cell-based; details: Homo sapiens, U-251; U251, 10^–5 Molar; read-out: Percent growth inhibition
Protocol: as §1, §2, §3

BT-549 = assay: NCI-60 SRB screen; assay type: cell-based; details: Homo sapiens; BT-549, 10^–5 Molar; read-out: Percent growth inhibition
Protocol: as §1, §2, §3

M14 = assay: NCI-60 SRB screen; assay type: cell-based; details: Homo sapiens; M14, 10^–5 Molar; read-out: Percent growth inhibition
Protocol: as §1, §2, §3

leukemia SR = assay: NCI-60 SRB screen; assay type: cell-based; details: Homo sapiens; SR, 10^–5 Molar; read-out: Percent growth inhibition
Protocol: as §1, §2, §3

HCT-15 = assay: NCI-60 SRB screen; assay type: cell-based; details: Homo sapiens; HCT-15, 10^–5 Molar; read-out: Percent growth inhibition
Protocol: as §1, §2, §3

Compound	melting point [°C]	inhibition at 10 µM (SK-OV-3) [%]	activity at 10 µM [1] [%]	inhibition at 10 µM (SF-295) [%]	inhibition at 10 µM (UACC-62) [%]	inhibition at 10 µM (MDA-MB-468) [%]	inhibition at 10 µM (HCT-116) [%]	inhibition at 10 µM (HCC-2998) [%]	inhibition at 10 µM (NCI-H522) [%]	inhibition at 10 µM (A498) [%]	inhibition at 10 µM (OVCAR-5) [%]	inhibition at 10 µM (MDA-MB-231/ATCC) [%]	inhibition at 10 µM (HOP-92) [%]	inhibition at 10 µM (NCI-H460) [%]	inhibition at 10 µM (RXF 393) [%]	inhibition at 10 µM (HOP-62) [%]	inhibition at 10 µM (leukemia SR) [%]	also measured
CCn1cc(C(=O)O)c(=O)c2cc(F)c(N3CCN(CC(=O)Nc4ccccc4)C(C)C3)c(F)c21 (stereo not drawn) [Compound 5a, 1-Ethyl-6,8-difluoro-7-(3-methyl-4-(2-oxo-2-(phenylamino)ethyl)piperazin-1-yl)-4-oxo-1,4-dihydroquinoline-3-carboxylic acid]	248 to 250	9.27	97.2	4.71	21.8	7.38	0.13	0.15	7.5	26.6	1.71	12.9	2.95	0.79				
CCn1cc(C(=O)O)c(=O)c2cc(F)c(N3CCN(C(=O)c4ccccc4)C(C)C3)c(F)c21 (stereo not drawn) [Compound 7a, 7-(4-Benzoyl-3-methylpiperazin-1-yl)-1-ethyl-6,8-difluoro-4-oxo-1,4-dihydroquinoline-3-carboxylic acid]	290 to 292		93.5	6.9	25	4.54		5.26	9.08	19.1	5.65	16.6	31.8	4.91	6.68	4.44		inhibition at 10 µM (U251): 2.73%; inhibition at 10 µM (BT-549): 3.33%; inhibition at 10 µM (M14): 9.98%
CCn1cc(C(=O)O)c(=O)c2cc(F)c(N3CCN(C(=O)c4ccc(Br)cc4)C(C)C3)c(F)c21 (stereo not drawn) [Compound 7b, 7-(4-(4-Bromobenzoyl)-3-methylpiperazin-1-yl)-1-ethyl-6,8-difluoro-4-oxo-1,4-dihydroquinoline-3-carboxylic acid]	271 to 273	1.83	98.8	6.71	17.5	3.31			10	13.8	2.96	13.3		1.2	6.35	5.56	1.41	inhibition at 10 µM (HCT-15): 1.3%
CCn1cc(C(=O)O)c(=O)c2cc(F)c(N3CCN(C(=O)c4ccc(Cl)cc4)C(C)C3)c(F)c21 (stereo not drawn) [Compound 7c, 7-(4-(4-Chlorobenzoyl)-3-methylpiperazin-1-yl)-1-ethyl-6,8-difluoro-4-oxo-1,4-dihydroquinoline-3-carboxylic acid]	282 to 284	2.14	97.7	3.13	18.9	3.92	0.17		9.51	19.2	2.81	14.3		1.66	0.35	2.13	8.55	
CCn1cc(C(=O)O)c(=O)c2cc(F)c(N3CCN(C(=O)c4ccc([N+](=O)[O-])cc4)C(C)C3)c(F)c21 (stereo not drawn) [Compound 7d, 1-Ethyl-6,8-difluoro-7-(3-methyl-4-(4-nitrobenzoyl)piperazin-1-yl)-4-oxo-1,4-dihydroquinoline-3-carboxylic acid]	215 to 217		97.3	2.82	10.9	2.79	2.1		0.62	8.25	9.27	8.63	0.34			7.44	44.8	inhibition at 10 µM ([1]; prostate and renal cancer cell lines, 10^−5 M, read-out: percent inhibition): 12 to 27.2%
